Results taken from ChEMBL document CHEMBL1156496 (J Biol Chem, 2007).
pIC50, pKd: −log10 of the molar value.

Columns and labels:
[1] = Binding affinity to complement component C3c in human plasma; type: cell-free
[2] = Inhibition of complement component C3c

pKd [1]: 6.41
pIC50 [2]: 4.92
Compound: CC[C@H](C)[C@H](N)C(=O)N[C@H]1CSSC[C@@H](C(=O)N[C@H](C(N)=O)[C@@H](C)O)NC(=O)[C@H](CCCNC(=N)N)NC(=O)[C@H](Cc2cnc[nH]2)NC(=O)[C@H](Cc2cnc[nH]2)NC(=O)CNC(=O)[C@H](Cc2c[nH]c3ccccc23)NC(=O)[C@H](CC(=O)O)NC(=O)[C@H](CCC(N)=O)NC(=O)[C@H](C(C)C)NC(=O)[C@H](C(C)C)NC1=O [COMPSTATIN]
